Measured values reported in PMC7067379, “Mapping the S1 and S1’ subsites of cysteine proteases with new dipeptidyl nitrile inhibitors as trypanocidal agents” (PLoS Neglected Tropical Diseases, 2020).
Where two headings read alike, the source gives them in different places.

Assays:
cathepsin B (CatB) = cathepsin B (CatB) (Homo sapiens, UniProt P07858); assay: Cathepsin B enzyme inhibition; format: biochemical; details: for remaining activity at 10 µM: replicates = 2, n.i. = no inhibition observed at 10 μM; for Ki: SD lower than 15%, read-out: pKi CatB (converted)
[1] = biological target: T1, Human recombinant cathepsin K (Homo sapiens, UniProt P43235); assay: Cathepsin K assay; format: biochemical; details: for Ki: SD lower than 15%, read-out: pKi CatK (converted); for remaining activity at 10 µM: replicates = 2, n.i. = no inhibition observed at 10 μM, read-out: remaining activity (%) at 10 μM, CatK
T1 sequence (P43235 115-329): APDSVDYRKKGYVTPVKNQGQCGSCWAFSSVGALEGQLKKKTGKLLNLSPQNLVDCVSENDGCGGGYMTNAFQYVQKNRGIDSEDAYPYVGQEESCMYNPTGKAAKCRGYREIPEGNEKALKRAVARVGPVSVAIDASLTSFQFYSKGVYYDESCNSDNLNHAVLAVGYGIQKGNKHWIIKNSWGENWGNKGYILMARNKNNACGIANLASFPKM
Protocol: Human recombinant cathepsin K was assayed on a FLUOSTAR Optima plate reader at 25 °C with an excitation wavelength of 360 nm and an emission wavelength of 440 nm on a 96 well plate. The enzyme solution (23 μg/mL in 50 mM sodium acetate pH 5.5, 50 mM NaCl, 0.5 mM EDTA, 5 mM DTT) was diluted 1:100 with assay buffer (100 mM sodium citrate buffer pH 5.0, 100 mM NaCl, 1 mM EDTA, 0.01% CHAPS) containing 5 mM DTT and was then incubated at 37 °C for 30 min for activation. A 1.5 mM stock solution of the substrate Z-Leu-Arg-AMC was prepared in DMSO. […] The assay was performed with a final concentration of cathepsin K of 1.73 ng/mL. Stock solutions of inhibitors were prepared in DMSO. The final DMSO concentration was 2% (4 μL). Into a well containing 194.5 μL assay buffer, 0.8 μL of the fluorogenic substrate, DMSO and inhibitor solution (3.2 μL) were added. Upon addition of cathepsin K (1.5 μL), the measurement was started and followed for 20 min.

cathepsin L (CatL) = cathepsin L (CatL) (Homo sapiens, UniProt P07711); assay: Cathepsin L enzyme inhibition; format: biochemical; details: SD lower than 15%; for Ki: read-out: pKi CatL (converted)
cathepsin S (CatS) = cathepsin S (CatS) (Homo sapiens, UniProt P25774); assay: Cathepsin S enzyme inhibition; format: biochemical; details: SD lower than 15%; read-out: pKi CatS (converted)
Protocol: (§1) Enzyme inhibition studies for Cz and LmCPB were performed as previously described for Cz. The experimental procedures are described in the Supporting Information (see chapter S3). Cathepsins B, L, S were assayed as reported.

recombinant cruzain (Cz) = recombinant cruzain (Cz) (Trypanosoma cruzi, UniProt P25779); assay: Cruzain enzyme inhibition; format: biochemical
Protocol: as §1

[2] = biological target: Leishmania mexicana CPB (LmCPB) (Leishmania mexicana, UniProt P36400); assay: LmCPB enzyme inhibition; format: biochemical
Protocol: as §1

[3] = test system: T. cruzi Tulahuen LacZ strain, intracellular amastigote forms; assay: In vitro trypanocidal activity on intracellular amastigote forms (Tulahuen strain); format: cell-based, Trypanosoma cruzi; details: for SI (selective index): from EC50 (T. cruzi) and CC50 (LLCMK2)
Protocol: Cells were evaluated in 96-well plates. Cells from the LLCMK2 lineage were plated at a concentration of 5x10^4 cells mL^-1. Trypomastigote forms of the Tulahuen LacZ strain were added at a concentration of 5×10^5 parasites mL^-1 and placed in the incubator at 37°C with 5% CO2 for 24 h. After the incubation period, the trypomastigote forms present were removed by successive washes with PBS, remaining only as intracellular amastigote forms. Compounds were added at different concentrations (1.95 μM to 250 μM serial dilutions) and incubated for 72 h. At the end of this period, the substrate CPRG (chlorophenol red β-D-galactopyranoside, 400 μM in 0.3% Triton X-100, pH 7.4) was added. […] Benznidazole was used as a positive control in the same concentrations as the substances, and DMSO as a negative control. Compounds were solubilized in DMSO. The selectivity index (SI) was calculated using the formula: […]. All statistical analyses were done with the program GraphPad Prism v.5.

[4] = Mammalian cytotoxicity assay (MTT); format: cell-based; details: rhesus monkey, LLCMK2 cells;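 note: Read-out is absorbance at 570 nm of formazan taken up in DMSO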
Protocol: LLCMK2 cells were cultured in 96-well plates at a concentration of 5 x 10^4 cells/ml. After 48 h, the plates were washed twice with PBS and 200 μL RPMI medium was added with serial dilutions of the compounds and benznidazole (1.95 μM to 250 μM) in triplicate. After 72 h at 37 °C, the cytotoxic activity of the compounds was determined by the classical MTT [3- (4,5-dimethylthiazol-2-yl) -2,5-diphenyltetrazolium bromide] method. Briefly, 50 μL MTT dissolved in PBS (2.0 mg mL^-1) was added to each well and the plates were incubated for 4 h at 37 °C. The formed formazan crystals were dissolved with DMSO (50 μL/well) and the absorbance of the samples was measured by spectrophotometer at 570 nm after 30 min.

[5] = SD lower than 15%, read-out: pKi Cz (converted)
[6] = SD lower than 15%, read-out: pKi LmCPB (converted)
[7] = Trypanosoma cruzi, TULAHUEN, 72 h, amastigote, Tulahuen strain, 72 h, Table 2, read-out: EC50 trypanocidal activity
[8] = Trypanosoma cruzi, TULAHUEN, T. cruzi amastigote form, S1 Table, read-out: pEC50 (converted)
[9] = LLCMK2, 72 h, MTT, Table 2, read-out: CC50 cytotoxicity
[10] = S1 Table, maximum concentration used 250 µM, read-out: CC50
[11] = Trypanosoma cruzi, TULAHUEN, S1 Table, maximum concentration used 250 µM, read-out: EC50 T. cruzi
[12] = Trypanosoma cruzi, TULAHUEN, read-out: EC50 T. cruzi, S1 Table, maximum concentration used 250 µM
[13] = Trypanosoma cruzi, TULAHUEN, read-out: pEC50, T. cruzi amastigote form (converted), S1 Table

cathepsin L (CatL), sequence (P07711 114-333): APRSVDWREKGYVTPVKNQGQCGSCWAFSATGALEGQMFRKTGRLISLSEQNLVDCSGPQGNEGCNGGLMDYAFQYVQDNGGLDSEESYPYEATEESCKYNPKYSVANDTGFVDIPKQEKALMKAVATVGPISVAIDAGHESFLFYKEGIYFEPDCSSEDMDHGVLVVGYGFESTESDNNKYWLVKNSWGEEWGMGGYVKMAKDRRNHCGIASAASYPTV
Leishmania mexicana CPB (LmCPB), sequence (P36400 126-443): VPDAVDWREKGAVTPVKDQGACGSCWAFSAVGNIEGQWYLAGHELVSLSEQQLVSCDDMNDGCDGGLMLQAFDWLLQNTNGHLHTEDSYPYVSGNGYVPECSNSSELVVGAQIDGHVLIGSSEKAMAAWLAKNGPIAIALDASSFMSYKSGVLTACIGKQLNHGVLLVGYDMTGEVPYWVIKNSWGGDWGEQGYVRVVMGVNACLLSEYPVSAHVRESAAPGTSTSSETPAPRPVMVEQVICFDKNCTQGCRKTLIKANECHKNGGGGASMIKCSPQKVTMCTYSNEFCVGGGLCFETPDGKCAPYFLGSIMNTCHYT
recombinant cruzain (Cz), sequence (P25779 123-337): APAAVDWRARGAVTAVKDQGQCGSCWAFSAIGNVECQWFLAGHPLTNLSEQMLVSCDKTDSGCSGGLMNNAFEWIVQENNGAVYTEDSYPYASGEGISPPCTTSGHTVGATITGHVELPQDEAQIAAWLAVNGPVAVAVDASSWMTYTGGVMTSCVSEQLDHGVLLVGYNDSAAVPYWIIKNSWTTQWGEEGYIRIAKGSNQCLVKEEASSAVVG
cathepsin S (CatS), sequence (P25774 115-331): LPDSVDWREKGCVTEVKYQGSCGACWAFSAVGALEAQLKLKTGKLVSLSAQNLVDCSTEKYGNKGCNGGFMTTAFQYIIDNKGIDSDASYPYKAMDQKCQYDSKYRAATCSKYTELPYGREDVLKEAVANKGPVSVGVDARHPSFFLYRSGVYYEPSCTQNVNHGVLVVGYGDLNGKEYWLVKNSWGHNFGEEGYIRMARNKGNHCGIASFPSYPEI

| SMILES | Ki [1] | Ki (cathepsin L (CatL)) | Ki (cathepsin S (CatS)) | Ki (recombinant cruzain (Cz); [5]) | Ki [2, 6] | EC50 [3, 7] | EC50 [3, 8] | SI (selective index) ([3]; Table 2) | CC50 at 72 h [4, 9] | CC50 at 72 h [4, 10] | melting point | EC50 [3, 12] | EC50 [3, 13] | Ki (cathepsin B (CatB)) | also measured |
| --- | --- | --- | --- | --- | --- | --- | --- | --- | --- | --- | --- | --- | --- | --- | --- |
| CC(C)CC(C#N)NC(=O)[C@H](Cc1ccccc1)NC(=O)c1cc(C(C)(C)C)nn1C (stereo in doubt) [Compound 53, 3-(tert-Butyl)-N-((S)-1-(((S)-1-cyano-3-methylbutyl)amino)-1-oxo-3-phenylpropan-2-yl)-1-methyl-1H-pyrazole-5-carboxamide] | 1000 nM | 100 nM | 1000 nM | 316 nM | 398 nM | 26000 ± 2600 nM | 25100 nM | > 3.8 | > 100000 nM | 132000 nM | 91 to 94 °C | – | – | – | remaining activity at 10 µM (cathepsin B (CatB)): 90% |
| O=C(Cn1ccnc1[N+](=O)[O-])NCc1ccccc1 [Benznidazole, reference compound] | – | – | – | – | – | 4400 ± 470 nM | 3980 nM | > 23 | > 100000 nM | – | – | – | – | – | EC50 [3, 11]: 4300 nM |
| N#CC1(NC(=O)[C@H](Cc2ccccc2)NC(=O)c2ccccc2)CC1 [Compound 6] | 398 nM | – | 79.4 nM | – | 251 nM | – | – | – | – | – | – | > 100000 nM | > 100000 nM | – | pKi CatL (cathepsin L (CatL)): 7.4 |
| N#CC1(NC(=O)[C@H](Cc2cccc(Cl)c2)NC(=O)c2ccccc2)CC1 [Compound 7, (S)-N-(3-(3-Chlorophenyl)-1-((1-cyanocyclopropyl)amino)-1-oxopropan-2-yl)benzamide] | 631 nM | 50.1 nM | 20 nM | 126 nM | 631 nM | – | – | – | – | 4000 nM | 213 to 215 °C | > 100000 nM | > 100000 nM | 3160 nM | – |
| Cn1nc(C(C)(C)C)cc1C(=O)N[C@@H](Cc1cccc(Cl)c1)C(=O)NC1(C#N)CC1 [Compound 8, (S)-3-(tert-Butyl)-N-(3-(3-chlorophenyl)-1-((1-cyanocyclopropyl)amino)-1-oxopropan-2-yl)-1-methyl-1H-pyrazole-5-carboxamide] | 398 nM | 2.51 nM | 200 nM | 39.8 nM | 200 nM | – | – | – | – | > 100000 nM | 152 to 154 °C | > 100000 nM | > 100000 nM | 3980 nM | EC50 ([3]; Trypanosoma cruzi, TULAHUEN, amastigote forms of T. cruzi (Tuhaluen strain), Figs 12-14, unit inferred): > 100000 nM |
| Cn1nc(C(C)(C)C)cc1C(=O)N[C@@H](Cc1ccccc1)C(=O)NC1(C#N)CC1 [Compound 9] | 316 nM | 6.31 nM | 158 nM | 50.1 nM | 79.4 nM | – | – | > 1.4 | > 100000 nM | – | – | – | 79400 nM | 15800 nM | EC50 ([3]; Trypanosoma cruzi, TULAHUEN, 72 h, read-out: EC50 trypanocidal activity, amastigote, Tulahuen strain, 72 h, Table 2): 71800 nM; EC50 ([3]; amastigote, Tulahuen strain, 72 h, Table 2, read-out: EC50 trypanocidal activity): 72000 ± 5700 nM |
| Cn1nc(C(C)(C)C)cc1C(=O)N[C@@H](Cc1ccncc1)C(=O)NC1(C#N)CC1 [Compound 10, (S)-3-(tert-Butyl)-N-(1-((1-cyanocyclopropyl)amino)-1-oxo-3-(pyridin-4-yl)propan-2-yl)-1-methyl-1H-pyrazole-5-carboxamide] | 10000 nM | 25.1 nM | 2510 nM | 251 nM | 398 nM | 67600 ± 8220 nM | – | > 1.5 | > 100000 nM | – | – | – | 63100 nM | – | remaining activity at 10 µM (cathepsin B (CatB)): 93% |
| CC(C)C[C@H](NC(=O)c1cc(C(C)(C)C)nn1C)C(=O)NC1(C#N)CC1 [Compound 11] | 5.01 nM | 25.1 nM | 39.8 nM | 15.8 nM | 50.1 nM | – | – | – | – | > 100000 nM | – | > 100000 nM | > 100000 nM | 31600 nM | difference in pKi, Cz (recombinant cruzain (Cz); relative to compound 9, sign not given, direction by cell colour or wording): 0.5 |
| C[C@@H](OCc1ccccc1)[C@H](NC(=O)c1cc(C(C)(C)C)nn1C)C(=O)NC1(C#N)CC1 [Compound 12, N-((2S,3R)-3-(Benzyloxy)-1-((1-cyanocyclopropyl)amino)-1-oxobutan-2-yl)-3-(tert-butyl)-1-methyl-1H-pyrazole-5-carboxamide] | – | 1260 nM | 1260 nM | 7940 nM | 3160 nM | 32700 ± 3860 nM | – | > 3.1 | > 100000 nM | – | 100 to 101 °C | – | 31600 nM | 39800 nM | remaining activity at 10 µM [1]: 96% |
| N#CC1(NC(=O)[C@H](Cc2ccccc2)NC(=O)c2ccnc3cc(Cl)ccc23)CC1 [Compound 13, (S)-7-Chloro-N-(1-((1-cyanocyclopropyl)amino)-1-oxo-3-phenylpropan-2-yl)quinoline-4-carboxamide] | – | 63.1 nM | 200 nM | – | – | – | – | – | – | > 100000 nM | 260 to 262 °C | > 100000 nM | > 100000 nM | 12600 nM | remaining activity at 10 µM [1]: 81%; Ki (recombinant cruzain (Cz)): 200 nM; Ki [2]: 126 nM |
| Cn1nc(C(C)(C)C)cc1C(=O)N[C@@H](Cc1ccccc1)C(=O)N[C@H](C#N)Cc1ccncc1 [Compound 55, 3-(tert-Butyl)-N-((S)-1-(((S)-1-cyano-2-(pyridin-4-yl)ethyl)amino)-1-oxo-3-phenylpropan-2-yl)-1-methyl-1H-pyrazole-5-carboxamide] | 316 nM | 5.01 nM | 63.1 nM | – | – | – | > 100000 nM | – | – | > 100000 nM | – | – | – | 15800 nM | Ki (recombinant cruzain (Cz)): 31.6 nM; Ki [2]: 63.1 nM; EC50 [3, 11]: > 100000 nM |
| C[C@@H](OCc1ccccc1)[C@@H](C#N)NC(=O)[C@H](Cc1cccc(Cl)c1)NC(=O)c1cc(C(C)(C)C)nn1C [Compound 60, N-((S)-1-(((1R,2R)-2-(Benzyloxy)-1-cyanopropyl)amino)-3-(3-chlorophenyl)-1-oxopropan-2-yl)-3-(tert-butyl)-1-methyl-1H-pyrazole-5-carboxamide] | 1000 nM | 7.94 nM | 316 nM | 63.1 nM | 158 nM | 4900 ± 450 nM | 5010 nM | > 20 | > 100000 nM | 125000 nM | – | – | – | 501 nM | fold increase in trypanocidal potency ([3]; compared with compound 9): 14.5 fold |
| C[C@@H](O)[C@@H](C#N)NC(=O)[C@H](Cc1cccc(Cl)c1)NC(=O)c1cc(C(C)(C)C)nn1C [Compound 69, 3-(tert-butyl)-N-((S)-3-(3-chlorophenyl)-1-(((1R,2R)-1-cyano-2-hydroxypropyl)amino)-1-oxopropan-2-yl)-1-methyl-1H-pyrazole-5-carboxamide] | 794 nM | 6.31 nM | 251 nM | 126 nM | 1000 nM | 30600 ± 3110 nM | 31600 nM | – | > 100000 nM | – | – | – | – | 6310 nM | EC50 [3, 11]: 30500 nM |
